Results taken from patent US20240174671A1, “New 2,3-Dihydro-1H-pyrrolo[3,2-b]pyridine Derivatives as Sigma Ligands” (ACONDICIONAMIENTO TARRASENSE, priority 2021, published 2024).
Read-outs that look alike come from different tables or passages of the source.

Assays:
human σ1 receptor = target: T1, human σ1 receptor (Homo sapiens, UniProt Q99720); assay: Human σ1 receptor radioligand assay ([3H](+)-pentazocine); type: binding
T1 construct: expressed in transfected cells; host or cells: HEK-293
Experimental: Human σ1 Receptor Radioligand Assay
(§1) NBS (non-specific binding) was measured by adding 10 μM haloperidol. The binding of the test compound was measured at either one concentration (% inhibition at 1 or 10 µM) or five different concentrations to determine affinity values (Ki). Plates were incubated at 37° C. for 120 minutes. After the incubation period, the reaction mix was then transferred to MultiScreen HTS, FC plates (Millipore), filtered and plates were washed 3 times with ice-cold 10 mM Tris-HCL (pH7.4). Filters were dried and counted at approximately 40% efficiency in a MicroBeta scintillation counter (Perkin-Elmer) using EcoScint liquid scintillation cocktail.

human σ2/TMEM97 receptor = target: T2, human σ2/TMEM97 receptor (Homo sapiens, UniProt Q5BJF2); assay: Binding assay to human σ2/TMEM97 receptor ([3H]-DTG)
T2 construct: expressed in transfected cells; host or cells: HEK-293
T2 sequence (Q5BJF2 whole entry): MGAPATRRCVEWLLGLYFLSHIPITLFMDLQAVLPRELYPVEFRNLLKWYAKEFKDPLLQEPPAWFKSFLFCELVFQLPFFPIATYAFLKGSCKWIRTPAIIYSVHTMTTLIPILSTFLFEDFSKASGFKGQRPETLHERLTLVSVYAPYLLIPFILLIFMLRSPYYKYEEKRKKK
Experimental: Binding Assay to Human σ2/TMEM97 Receptor.
as §1, with “Transfected HEK-293 membranes (15 μg) were incubated with 10 nM [^3H]-1,3-Di-o-tolylguanidine (DTG) in assay buffer containing Tris-HCl 50 mM at pH 8.0. NSB” for “NBS”, “25°” for “37°”, “was” for “was then”, “and” for “and plates were”, “(pH 8.0).” for “(pH7.4).”

[1] = transfected HEK-293 membranes, 5 nM [3H](+)-pentazocine, 37° C., 120 minutes, read-out: Binding σ-[…] (binding to σ1-receptor expressed as Ki)
[2] = transfected HEK-293 membranes, 10 nM [3H]-DTG, 25° C., 120 minutes, read-out: Binding σ-[…] (binding to σ2-receptor expressed as Ki)

T1 sequence (Q99720 whole entry): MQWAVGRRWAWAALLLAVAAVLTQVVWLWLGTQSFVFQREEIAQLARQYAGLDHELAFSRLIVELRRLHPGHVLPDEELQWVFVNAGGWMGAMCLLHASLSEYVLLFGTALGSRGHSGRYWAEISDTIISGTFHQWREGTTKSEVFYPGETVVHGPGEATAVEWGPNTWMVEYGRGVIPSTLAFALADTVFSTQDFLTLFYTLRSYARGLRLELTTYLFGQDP

| SMILES | Ki (human σ1 receptor; [1]) | Ki (human σ2/TMEM97 receptor; [2]) | Ki (human σ2/TMEM97 receptor) | Ki (human σ1 receptor) |
| --- | --- | --- | --- | --- |
| Cc1ccc2c(n1)C(C)(C)CN2C(=O)N1CC[C@H](N(C)Cc2ccccc2)C1 [Example 39, (S)-(3-(benzyl(methyl)amino)pyrrolidin-1-yl)(3,3,5-trimethyl-2,3-dihydro-1H-pyrrolo[3,2-b]pyridin-1-yl)methanone] | 0.1 to 0.5 µM | > 1 µM | – | – |
| Cc1ccc2c(n1)C(C)(C)CN2C(=O)N1CCC(N(C)Cc2cccc(S(C)(=O)=O)c2)CC1 [Example 56, (4-(methyl(3-(methylsulfonyl)benzyl)amino)piperidin-1-yl)(3,3,5-trimethyl-2,3-dihydro-1H-pyrrolo[3,2-b]pyridin-1-yl)methanone] | > 1 µM | 0.5 to 1 µM | – | – |
| Cc1ccc2c(n1)C(C)(C)CN2C(=O)NCC1CN(Cc2ccccc2)C1 [Example 82, N-((1-benzylazetidin-3-yl)methyl)-3,3,5-trimethyl-2,3-dihydro-1H-pyrrolo[3,2-b]pyridine-1-carboxamide] | 0.1 to 0.5 µM | < 0.1 µM | – | – |
| CC1(C)CN(C(=O)N2CCC3(CCN(Cc4ccc(C(F)(F)F)nc4)CC3)C2)c2cccnc21 [Example 155, (3,3-dimethyl-2,3-dihydro-1H-pyrrolo[3,2-b]pyridin-1-yl)(8-((6-(trifluoromethyl)pyridin-3-yl)methyl)-2,8-diazaspiro[4.5]decan-2-yl)methanone] | > 1 µM | < 0.1 µM | – | – |
| CC1(C)CN(C(=O)N2CCC3(CCN(CC4CCOCC4)CC3)CC2)c2cccnc21 [Example 166, (3,3-dimethyl-2,3-dihydro-1H-pyrrolo[3,2-b]pyridin-1-yl)(9-((tetrahydro-2H-pyran-4-yl)methyl)-3,9-diazaspiro[5.5]undecan-3-yl)methanone] | 0.1 to 0.5 µM | < 0.1 µM | – | – |
| CC1(C)CN(C(=O)NC2CN(Cc3ccccc3)C2)c2cccnc21 [Example 88, N-(1-benzylazetidin-3-yl)-3,3-dimethyl-2,3-dihydro-1H-pyrrolo[3,2-b]pyridine-1-carboxamide] | 0.1 to 0.5 µM | > 1 µM | – | – |
| Cc1ccc2c(n1)C(C)(C)CN2C(=O)N1CCC2(CCN(CCc3ccccc3)CC2)C1 [Example 91, (8-phenethyl-2,8-diazaspiro[4.5]decan-2-yl)(3,3,5-trimethyl-2,3-dihydro-1H-pyrrolo[3,2-b]pyridin-1-yl)methanone] | 0.5 to 1 µM | – | < 0.1 µM | – |
| CN(Cc1ccccc1)[C@H]1CC[C@H](NC(=O)N2CC(C)(C)c3ncccc32)CC1 [Example 71, N-((1r,4r)-4-(benzyl(methyl)amino)cyclohexyl)-3,3-dimethyl-2,3-dihydro-1H-pyrrolo[3,2-b]pyridine-1-carboxamide] | > 1 µM | < 0.1 µM | – | – |
| Cc1ccc2c(n1)C(C)(C)CN2C(=O)NC[C@H](Cc1ccccc1)N(C)C [Example 12, (S)—N-(2-(dimethylamino)-3-phenylpropyl)-3,3,5-trimethyl-2,3-dihydro-1H-pyrrolo[3,2-b]pyridine-1-carboxamide] | – | > 1 µM | – | < 0.1 µM |
| CC(C)(C)CCN1CCC(CNC(=O)N2CC(C)(C)c3ncccc32)CC1 [Example 109, N-((1-(3,3-dimethylbutyl)piperidin-4-yl)methyl)-3,3-dimethyl-2,3-dihydro-1H-pyrrolo[3,2-b]pyridine-1-carboxamide] | 0.1 to 0.5 µM | < 0.1 µM | – | – |
| Cc1ccc2c(n1)C(C)(C)CN2C(=O)N1CCCCC(NCCC(C)C)C1 (stereo not drawn) [Example 120, (3-(Isopentylamino)azepan-1-yl)(3,3,5-trimethyl-2,3-dihydro-1H-pyrrolo[3,2-t]pyridin-1-yl)methanone] | 0.5 to 1 µM | < 0.1 µM | – | – |
| CCN[C@@H](CNC(=O)N1CC(C)(C)c2nc(C)ccc21)c1ccccc1 [Example 113, (R)—N-(2-(ethylamino)-2-phenylethyl)-3,3,5-trimethyl-2,3-dihydro-1H-pyrrolo[3,2-b]pyridine-1-carboxamide] | – | > 1 µM | – | 0.1 to 0.5 µM |
| Cc1ccc2c(n1)C(C)(C)CN2C(=O)[C@H]1CC[C@H](N(C)CC2CCOCC2)CC1 [Example 185, ((1r,4r)-4-(methyl((tetrahydro-2H-pyran-4-yl)methyl)amino)cyclohexyl)(3,3,5-trimethyl-2,3-dihydro-1H-pyrrolo[3,2-b]pyridin-1-yl)methanone] | 0.1 to 0.5 µM | < 0.1 µM | – | – |

Now from value to molecule, other results behind:

| Ki (human σ1 receptor; [1]) | Ki (human σ2/TMEM97 receptor; [2]) | SMILES | Ki (human σ2/TMEM97 receptor) | Ki (human σ1 receptor) |
| --- | --- | --- | --- | --- |
| < 0.1 µM | < 0.1 µM | Cc1ccc2c(n1)C(C)(C)CN2C(=O)[C@H]1CC[C@H](N(C)Cc2ccc(F)cc2)CC1 [Example 182, ((1r,4r)-4-((4-fluorobenzyl)(methyl)amino)cyclohexyl)(3,3,5-trimethyl-2,3-dihydro-1H-pyrrolo[3,2-b]pyridin-1-yl)methanone] | – | – |
| < 0.1 µM | > 1 µM | Cc1ccc2c(n1)C(C)(C)CN2C(=O)NC1CCN(Cc2cccc(F)c2)CC1 [Example 26, N-(1-(3-fluorobenzyl)piperidin-4-yl)-3,3,5-trimethyl-2,3-dihydro-1H-pyrrolo[3,2-b]pyridine-1-carboxamide] | – | – |
| < 0.1 µM | > 1 µM | CN(Cc1ccccc1)[C@H]1CC[C@H](C(=O)N2CC(C)(C)c3nc(C(F)(F)F)ccc32)CC1 [Example 186, ((1r,4r)-4-(benzyl(methyl)amino)cyclohexyl)(3,3-dimethyl-5-(trifluoromethyl)-2,3-dihydro-1H-pyrrolo[3,2-b]pyridin-1-yl)methanone] | – | – |
| < 0.1 µM | < 0.1 µM | CC1(C)CN(C(=O)N2CCC3(CCN(Cc4cc(F)ccc4F)CC3)C2)c2cccnc21 [Example 148, (8-(2,5-difluorobenzyl)-2,8-diazaspiro[4.5]decan-2-yl)(3,3-dimethyl-2,3-dihydro-1H-pyrrolo[3,2-b]pyridin-1-yl)methanone] | – | – |
| < 0.1 µM | < 0.1 µM | CN(Cc1cc(F)ccc1F)[C@H]1CC[C@H](C(=O)N2CC(C)(C)c3ncccc32)CC1 [Example 176, ((1r,4r)-4-((2,5-difluorobenzyl)(methyl)amino)cyclohexyl)(3,3-dimethyl-2,3-dihydro-1H-pyrrolo[3,2-b]pyridin-1-yl)methanone] | – | – |
| < 0.1 µM | 0.1 to 0.5 µM | CC1(C)CN(C(=O)N2CC3(CCN(Cc4ccccc4)CC3)C2)c2cccnc21 [Example 159, (7-benzyl-2,7-diazaspiro[3.5]nonan-2-yl)(3,3-dimethyl-2,3-dihydro-1H-pyrrolo[3,2-b]pyridin-1-yl)methanone] | – | – |
| < 0.1 µM | 0.1 to 0.5 µM | CN(Cc1ccccc1)C1CCN(C(=O)N2CCc3ncccc32)CC1 [Example 51, (4-(benzyl(methyl)amino)piperidin-1-yl)(2,3-dihydro-1H-pyrrolo[3,2-b]pyridin-1-yl)methanone] | – | – |
| < 0.1 µM | 0.5 to 1 µM | Cc1ccc2c(n1)C(C)(C)CN2C(=O)N1CC2(CN(Cc3ccccc3)C2)C1 [Example 81, (6-benzyl-2,6-diazaspiro[3.3]heptan-2-yl)(3,3,5-trimethyl-2,3-dihydro-1H-pyrrolo[3,2-b]pyridin-1-yl)methanone] | – | – |
| < 0.1 µM | < 0.1 µM | CC(C)CCN(C)[C@H]1CCCN(C(=O)N2CCc3ncccc32)C1 [Example 64, (S)-(2,3-dihydro-1H-pyrrolo[3,2-b]pyridin-1-yl)(3-(isopentyl(methy)amino)piperidin-1-yl)methanone] | – | – |
| < 0.1 µM | < 0.1 µM | Cc1ccc2c(n1)C(C)(C)CN2C(=O)[C@H]1CC[C@H](N(C)Cc2ccc(F)c(F)c2)CC1 [Example 170, ((1r,4r)-4-((3,4-difluorobenzyl)(methyl)amino)cyclohexyl)(3,3,5-trimethyl-2,3-dihydro-1H-pyrrolo[3,2-b]pyridin-1-yl)methanone] | – | – |
| < 0.1 µM | < 0.1 µM | Cc1ccc2c(n1)C(C)(C)CN2C(=O)[C@H]1CC[C@H](N(C)Cc2ccccc2)CC1 [Example 140, ((1r,4r)-4-(benzyl(methyl)amino)cyclohexyl)(3,3,5-trimethyl-2,3-dihydro-1H-pyrrolo[3,2-b]pyridin-1-yl)methanone] | – | – |
| < 0.1 µM | < 0.1 µM | Cc1ccc2c(n1)C(C)(C)CN2C(=O)[C@H]1CC[C@H](N(C)Cc2cccc(F)c2F)CC1 [Example 174, ((1r,4r)-4-((2,3-difluorobenzyl)(methyl)amino)cyclohexyl)(3,3,5-trimethyl-2,3-dihydro-1H-pyrrolo[3,2-b]pyridin-1-yl)methanone] | – | – |
| < 0.1 µM | < 0.1 µM | Cc1ccc2c(n1)C(C)(C)CN2C(=O)[C@H]1CC[C@H](N(C)Cc2c(F)cccc2F)CC1 [Example 171, ((1r,4r)-4-((2,6-difluorobenzyl)(methyl)amino)cyclohexyl)(3,3,5-trimethyl-2,3-dihydro-1H-pyrrolo[3,2-b]pyridin-1-yl)methanone] | – | – |
| < 0.1 µM | 0.1 to 0.5 µM | Cc1ccc2c(n1)C(C)(C)CN2C(=O)[C@H]1CC[C@H](N(C)Cc2ccc(F)cn2)CC1 [Example 179, ((1r,4r)-4-(((5-fluoropyridin-2-yl)methyl)(methyl)amino)cyclohexyl)(3,3,5-trimethyl-2,3-dihydro-1H-pyrrolo[3,2-b]pyridin-1-yl)methanone] | – | – |
